Results reported in patent US20200187502A1, “MICROBIOCIDAL OXADIAZOLE DERIVATIVES” (SYNGENTA PARTICIPATIONS AG, priority 2017, published 2020).

Assays:
[1] = tested on: Glomerella lacenarium (Colletotrichum lacenarium); assay: Fungicidal activity, liquid culture, cucumber preventative (anthracnose); type: cell-based; conditions: 20 ppm in the applied formulation, liquid culture in PDB, inhibition of growth measured photometrically 3 to 4 days after application, compared to untreated control, read-out: disease control
Outline: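 In liquid culture, cryo-stored conidia in potato dextrose broth were exposed to compound delivered from DMSO solution. Growth inhibition was measured photometrically after 3 to 4 days at 24° C.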

[2] = tested on: Puccinia recondita f. Sp. Tritici; assay: Fungicidal activity, wheat leaf disc curative (brown rust); type: in vivo; conditions: foliar, 200 ppm in the applied formulation, wheat leaf segments cv. Kanzler, curative (applied 1 day after inoculation), compared to untreated control, 6 to 8 days after application, read-out: disease control
Outline: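 Spray application came one day after spore inoculation of Kanzler wheat leaf segments kept on agar. Conditions: 19° C, 75% relative humidity, dark before treatment and 12 h light/12 h dark after. Efficacy = % disease control compared with untreated, 6–8 days post-application.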

Phakopsora pachyrhizi = assay: Fungicidal activity, soybean leaf disc preventative (Asian soybean rust); type: in vivo; conditions: foliar, 200 ppm in the applied formulation, soybean leaf disks, compared to untreated control, 12 to 14 days after application, read-out: disease control
Outline: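 Read-out is percent disease control relative to untreated check discs, assessed once untreated discs show adequate disease, 12 to 14 days after application. Compounds, tested at 200 ppm in the applied formulation, are sprayed onto soybean leaf discs one day before inoculation with a spore suspension.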

[3] = tested on: Puccinia recondita f. Sp. Tritici; assay: Fungicidal activity, wheat leaf disc preventative (brown rust); type: in vivo; conditions: foliar, 200 ppm in the applied formulation, wheat leaf segments cv. Kanzler, compared to untreated control, 7 to 9 days after application, read-out: disease control
Outline: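 Wheat cv. Kanzler leaf segments on agar were sprayed with formulated compound in water, then inoculated with spores 1 day later. Incubated at 19° C, 75% rh, 12 h light/12 h dark; percent disease control versus untreated scored 7 to 9 days after application.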

CCN(CC)C(=O)N(C)Cc1ccc(-c2noc(C(F)(F)F)n2)s1 [Compound 4.79, 1,1-diethyl-3-methyl-3-[[5-[5-(trifluoromethyl)-1,2,4-oxadiazol-3-yl]-2-thienyl]methyl]urea]
≥ 80%: inhibition of growth at 20 ppm [1] | pest or weed control at 200 ppm [2] | pest or weed control at 200 ppm (Phakopsora pachyrhizi) | pest or weed control at 200 ppm [3]

CCN(Cc1ccc(-c2noc(C(F)(F)F)n2)s1)C(=O)NCCOC [Compound 4.72, 1-ethyl-3-(2-methoxyethyl)-1-[[5-[5-(trifluoromethyl)-1,2,4-oxadiazol-3-yl]-2-thienyl]methyl]urea]
≥ 80%: inhibition of growth at 20 ppm [1] | pest or weed control at 200 ppm [2] | pest or weed control at 200 ppm (Phakopsora pachyrhizi) | pest or weed control at 200 ppm [3]

CCN(CC)C(=O)N(Cc1ccc(-c2noc(C(F)(F)F)n2)s1)OC [Compound 1.54, 1,1-diethyl-3-methoxy-3-[[5-[5-(trifluoromethyl)-1,2,4-oxadiazol-3-yl]-2-thienyl]methyl]urea]
≥ 80%: inhibition of growth at 20 ppm [1] | pest or weed control at 200 ppm [2] | pest or weed control at 200 ppm (Phakopsora pachyrhizi) | pest or weed control at 200 ppm [3]

C#CCNC(=O)N(C)Cc1ccc(-c2noc(C(F)(F)F)n2)s1 [Compound 4.81, 1-methyl-3-prop-2-ynyl-1-[[5-[5-(trifluoromethyl)-1,2,4-oxadiazol-3-yl]-2-thienyl]methyl]urea]
≥ 80%: inhibition of growth at 20 ppm [1] | pest or weed control at 200 ppm [2] | pest or weed control at 200 ppm (Phakopsora pachyrhizi) | pest or weed control at 200 ppm [3]

COCCNC(=O)N(C)Cc1ccc(-c2noc(C(F)(F)F)n2)s1 [Compound 4.78, 3-(2-methoxyethyl)-1-methyl-1-[[5-[5-(trifluoromethyl)-1,2,4-oxadiazol-3-yl]-2-thienyl]methyl]urea]
≥ 80%: inhibition of growth at 20 ppm [1] | pest or weed control at 200 ppm [2] | pest or weed control at 200 ppm (Phakopsora pachyrhizi) | pest or weed control at 200 ppm [3]

O=C(CC(F)(F)F)NCc1ccc(-c2noc(C(F)(F)F)n2)s1 [Compound 2.12, 3,3,3-trifluoro-N-[[5-[5-(trifluoromethyl)-1,2,4-oxadiazol-3-yl]-2-thienyl]methyl]propanamide]
≥ 80%: inhibition of growth at 20 ppm [1] | pest or weed control at 200 ppm [2] | pest or weed control at 200 ppm (Phakopsora pachyrhizi) | pest or weed control at 200 ppm [3]

CNC(=O)N(Cc1ccc(-c2noc(C(F)(F)F)n2)s1)OCC(F)F [Compound 4.19, 1-(2,2-difluoroethoxy)-3-methyl-1-[[5-[5-(trifluoromethyl)-1,2,4-oxadiazol-3-yl]-2-thienyl]methyl]urea]
≥ 80%: inhibition of growth at 20 ppm [1] | pest or weed control at 200 ppm [2] | pest or weed control at 200 ppm (Phakopsora pachyrhizi) | pest or weed control at 200 ppm [3]

COCCNC(=O)N(Cc1ccc(-c2noc(C(F)(F)F)n2)s1)C1CC1 [Compound 4.89, 1-cyclopropyl-3-(2-methoxyethyl)-1-[[5-[5-(trifluoromethyl)-1,2,4-oxadiazol-3-yl]-2-thienyl]methyl]urea]
≥ 80%: inhibition of growth at 20 ppm [1] | pest or weed control at 200 ppm [2] | pest or weed control at 200 ppm (Phakopsora pachyrhizi) | pest or weed control at 200 ppm [3]

CCN(Cc1ccc(-c2noc(C(F)(F)F)n2)s1)C(=O)CCOC [Compound 4.25, N-ethyl-3-methoxy-N-[[5-[5-(trifluoromethyl)-1,2,4-oxadiazol-3-yl]-2-thienyl]methyl]propanamide]
≥ 80%: inhibition of growth at 20 ppm [1] | pest or weed control at 200 ppm [2] | pest or weed control at 200 ppm (Phakopsora pachyrhizi) | pest or weed control at 200 ppm [3]

CC(C)(C)OC(=O)NCc1ccc(-c2noc(C(F)(F)F)n2)s1 [Compound 2.1, tert-butyl N-[[5-[5-(trifluoromethyl)-1,2,4-oxadiazol-3-yl]-2-thienyl]methyl]carbamate]
≥ 80%: inhibition of growth at 20 ppm [1] | pest or weed control at 200 ppm [2] | pest or weed control at 200 ppm (Phakopsora pachyrhizi) | pest or weed control at 200 ppm [3]

CCN(Cc1ccc(-c2noc(C(F)(F)F)n2)s1)C(=O)CCCOC [Compound 4.28, N-ethyl-4-methoxy-N-[[5-[5-(trifluoromethyl)-1,2,4-oxadiazol-3-yl]-2-thienyl]methyl]butanamide]
≥ 80%: inhibition of growth at 20 ppm [1] | pest or weed control at 200 ppm [2] | pest or weed control at 200 ppm (Phakopsora pachyrhizi) | pest or weed control at 200 ppm [3]

C=CCN(C)C(=O)N(C)Cc1ccc(-c2noc(C(F)(F)F)n2)s1 [Compound 4.77, 1-allyl-1,3-dimethyl-3-[[5-(5-(trifluoromethyl)-1,2,4-oxadiazol-3-yl]-2-thienyl]methyl]urea]
≥ 80%: inhibition of growth at 20 ppm [1] | pest or weed control at 200 ppm [2] | pest or weed control at 200 ppm (Phakopsora pachyrhizi) | pest or weed control at 200 ppm [3]

CNC(=O)N(C)Cc1ccc(-c2noc(C(F)(F)F)n2)s1 [Compound 4.1, 1,3-dimethyl-1-[[5-[5-(trifluoromethyl)-1,2,4-oxadiazol-3-yl]-2-thienyl]methyl]urea]
≥ 80%: inhibition of growth at 20 ppm [1] | pest or weed control at 200 ppm [2] | pest or weed control at 200 ppm (Phakopsora pachyrhizi) | pest or weed control at 200 ppm [3]

COCCCC(=O)N(Cc1ccc(-c2noc(C(F)(F)F)n2)s1)OC [Compound 1.23, N,4-dimethoxy-N-[[5-[5-(trifluoromethyl)-1,2,4-oxadiazol-3-yl]-2-thienyl]methyl]butanamide]
≥ 80%: inhibition of growth at 20 ppm [1] | pest or weed control at 200 ppm [2] | pest or weed control at 200 ppm (Phakopsora pachyrhizi) | pest or weed control at 200 ppm [3]

CON(Cc1ccc(-c2noc(C(F)(F)F)n2)s1)C(=O)C1CCOC1 (stereo not drawn) [Compound 1.10, N-methoxy-N-[[5-[5-(trifluoromethyl)-1,2,4-oxadiazol-3-yl]-2-thienyl]methyl]tetrahydrofuran-3-carboxamide]
≥ 80%: inhibition of growth at 20 ppm [1] | pest or weed control at 200 ppm [2] | pest or weed control at 200 ppm (Phakopsora pachyrhizi) | pest or weed control at 200 ppm [3]

NC(=O)C(=O)N(Cc1ccc(-c2noc(C(F)(F)F)n2)s1)C1CC1 [Compound 6.10, N′-cyclopropyl-N′-[[5-[5-(trifluoromethyl)-1,2,4-oxadiazol-3-yl]-2-thienyl]methyl]oxamide]
≥ 80%: inhibition of growth at 20 ppm [1] | pest or weed control at 200 ppm [2] | pest or weed control at 200 ppm (Phakopsora pachyrhizi) | pest or weed control at 200 ppm [3]

C=CCN(C)C(=O)N(CC)Cc1ccc(-c2noc(C(F)(F)F)n2)s1 [Compound 4.71, 1-allyl-3-ethyl-1-methyl-3-[[5-[5-(trifluoromethyl)-1,2,4-oxadiazol-3-yl]-2-thienyl]methyl]urea]
≥ 80%: inhibition of growth at 20 ppm [1] | pest or weed control at 200 ppm [2] | pest or weed control at 200 ppm (Phakopsora pachyrhizi) | pest or weed control at 200 ppm [3]

CN(Cc1ccc(-c2noc(C(F)(F)F)n2)s1)C(=O)CC1CC1 [Compound 5.18, 2-cyclopropyl-N-methyl-N-[[5-[5-(trifluoromethyl)-1,2,4-oxadiazol-3-yl]-2-thienyl]methyl]acetamide]
≥ 80%: inhibition of growth at 20 ppm [1] | pest or weed control at 200 ppm [2] | pest or weed control at 200 ppm (Phakopsora pachyrhizi) | pest or weed control at 200 ppm [3]

CN(Cc1ccc(-c2noc(C(F)(F)F)n2)s1)C(=O)C1CCC1 [Compound 5.20, N-methyl-N-[[5-[5-(trifluoromethyl)-1,2,4-oxadiazol-3-yl]-2-thienyl]methyl]cyclobutanecarboxamide]
≥ 80%: inhibition of growth at 20 ppm [1] | pest or weed control at 200 ppm [2] | pest or weed control at 200 ppm (Phakopsora pachyrhizi) | pest or weed control at 200 ppm [3]

O=C(NCc1ccc(-c2noc(C(F)(F)F)n2)s1)C1CCC1 [Compound 3.4, N-[[5-[5-(trifluoromethyl)-1,2,4-oxadiazol-3-yl]-2-thienyl]methyl]cyclobutanecarboxamide]
≥ 80%: inhibition of growth at 20 ppm [1] | pest or weed control at 200 ppm [2] | pest or weed control at 200 ppm (Phakopsora pachyrhizi) | pest or weed control at 200 ppm [3]

COCCC(=O)N(Cc1ccc(-c2noc(C(F)(F)F)n2)s1)C(C)C [Compound 4.45, N-isopropyl-3-methoxy-N-[[5-[5-(trifluoromethyl)-1,2,4-oxadiazol-3-yl]-2-thienyl]methyl]propanamide]
≥ 80%: inhibition of growth at 20 ppm [1] | pest or weed control at 200 ppm [2] | pest or weed control at 200 ppm (Phakopsora pachyrhizi) | pest or weed control at 200 ppm [3]

CCNC(=O)N(Cc1ccc(-c2noc(C(F)(F)F)n2)s1)C(C)C [Compound 4.83, 3-ethyl-1-isopropyl-1-[[5-[5-(trifluoromethyl)-1,2,4-oxadiazol-3-yl]-2-thienyl]methyl]urea]
≥ 80%: inhibition of growth at 20 ppm [1] | pest or weed control at 200 ppm [2] | pest or weed control at 200 ppm (Phakopsora pachyrhizi) | pest or weed control at 200 ppm [3]

CCN(Cc1ccc(-c2noc(C(F)(F)F)n2)s1)C(=O)NC1CC1 [Compound 5.3, 3-cyclopropyl-1-ethyl-1-[[5-[5-(trifluoromethyl)-1,2,4-oxadiazol-3-yl]-2-thienyl]methyl]urea]
≥ 80%: inhibition of growth at 20 ppm [1] | pest or weed control at 200 ppm [2] | pest or weed control at 200 ppm (Phakopsora pachyrhizi) | pest or weed control at 200 ppm [3]

O=C(NCc1ccc(-c2noc(C(F)(F)F)n2)s1)C1CCCO1 (stereo not drawn) [Compound 3.8, N-[[5-[5-(trifluoromethyl)-1,2,4-oxadiazol-3-yl]-2-thienyl]methyl]tetrahydrofuran-2-carboxamide]
≥ 80%: inhibition of growth at 20 ppm [1] | pest or weed control at 200 ppm [2] | pest or weed control at 200 ppm (Phakopsora pachyrhizi) | pest or weed control at 200 ppm [3]
